Source: the NIST ThermoML archive (doi:10.1016/j.jct.2006.07.014)
± gives the expanded uncertainty stated by the source.

Key:
[1] = refractive index (Na D-line) (dimensionless); details: 298.15 K; 101.33 kPa; Liquid; Standard Abbe refractometry
[2] = Liquid; for mass density: 298.15 K, 101.33 kPa, Vibrating tube method

SMILES | refractive index [1] | mass density [2] [kg/m3] | vapor or sublimation pressure ([2]; 379.45 K) [kPa] | vapor or sublimation pressure ([2]; 353.85 K) [kPa] | vapor or sublimation pressure ([2]; 352.25 K) [kPa] | vapor or sublimation pressure ([2]; 389.15 K) [kPa] | vapor or sublimation pressure ([2]; 371.05 K) [kPa]
CC(C)(C)O [2-methylpropan-2-ol] | 1.3852 ± 0.0012 | 781.2 ± 4.4 |  | 94.83 ± 5 |  |  | 
CC#N [acetonitrile] | 1.3416 ± 0.0012 | 776.5 ± 4.3 |  |  | 94.83 ± 5 |  | 
CCCCO [butan-1-ol] | 1.3974 ± 0.0012 | 805.8 ± 4.6 |  |  |  | 94.83 ± 5 | 

Next, values leading:

refractive index [1] | mass density [2] [kg/m3] | vapor or sublimation pressure ([2]; 379.45 K) [kPa] | vapor or sublimation pressure ([2]; 353.85 K) [kPa] | vapor or sublimation pressure ([2]; 352.25 K) [kPa] | vapor or sublimation pressure ([2]; 389.15 K) [kPa] | vapor or sublimation pressure ([2]; 371.05 K) [kPa] | SMILES
1.3939 ± 0.0012 | 797.8 ± 4.6 | 94.83 ± 5 |  |  |  |  | CC(C)CO [2-methyl-1-propanol]
1.3953 ± 0.0012 | 802.4 ± 4.6 |  |  |  |  | 94.83 ± 5 | CCC(C)O (stereo not given) [butan-2-ol]
